From patent US11135252B2, “Probiotic therapies for developmental disorders and other neurological disorders” (Baylor College of Medicine, priority 2016, dated 2021)
Entries after “also recorded” stand apart in the source; their conditions may differ.

Test system: MHFD offspring
Assay: Three-chamber social test in MHFD offspring
Format: in vivo, mice
Conditions: in drinking water, 4 weeks
Description: Crawley's three-chamber test for sociability and preference for social novelty was performed as described (Silverman et al., 2010). In brief, the mouse first experienced a 10-minute period of habituation during which it was allowed to freely explore a 60×40×23 cm Plexiglass arena divided into three equally sized, interconnected chambers (Left, Center, Right). Sociability was measured during a second ten-minute period in which the subject could interact either with an empty wire cup (Empty) or a wire cup containing an age and sex-matched stranger conspecific (Mouse 1). Time spent interacting (sniffing, crawling upon) with either the empty cup or the stranger mouse contained in the other cup as well as time spent in each chamber was recorded using the AnyMaze software, by independent observers. Empty cup placement in the Left or Right chamber during the Sociability period was counterbalanced between trials. Finally, preference for social novelty was assayed by introducing a second stranger mouse (Mouse 2) into the previously the empty wire cup. Time spent in each chamber as well as time spent interacting with either Mouse 1 or Mouse 2 was recorded using the automated AnyMaze software by independent observers. Lactobacillus reuteri MM4-1A (ATCC-PTA-6475) and Lactobacillus johnsonii (ATCC 33200) were cultured anaerobically in MRS broth in a 90% N2, 5% CO2, 5% H2 environment. L. reuteri was heat-killed by keeping the bacteria at 80° C. for 20 minutes (Wang et al., 2010). Bacterial viability was assessed by plating and the efficacy of the heat-kill procedure was confirmed by the absence of colony growth following plating. Cultures were centrifuged, washed, and resuspended in anaerobic solution (PBS) and frozen at −80° C. until use. PBS, live or heat-killed L. reuteri were added to the drinking water, which was changed daily to minimize dosage variability. Whereas the experimental group received live bacteria, one control group received identically prepared cultures of heat-killed bacteria. A second group of control mice received water treated with PBS alone. Live and heat-killed L. reuteri were supplied at a dosage of 1×10^8 organisms/mouse/day continuously in drinking water. Mice consumed the treated water ad libitum over the treatment period. The treated drinking water for each group was replaced daily two hours prior to the onset of the dark cycle to minimize variation in microbial exposure. Behavioral assays were initiated after 4-weeks of L. reuteri or control treatment. The protocol of the L. johnsonii preparation and administration matched the L. reuteri protocol. Fecal samples for sequencing and tissue used in the immunofluorescence studies were collected at the end of the treatment. Oxytocin was obtained from Tocris Bioscience (product 1910) and solubilized in 10% dimethyl sulfoxide (DMSO) in PBS. 10% DMSO in PBS was used as the vehicle control. Mice received oxytocin intranasally (at approximately 200 μg/kg) thirty minutes prior to behavior. 1.25 μl of oxytocin or vehicle solution was injected into each nostril from P10 pipette. Oxytocin dose was selected according to dosages reported to rescue social behavior in genetic models phenotypically expressing ASD-like behaviors (Penagarikano et al., 2015).

With “Lactobacillus johnsonii (ATCC 33200) [L. johnsonii]” the “social behavior / social deficits (sociability and preference for social novelty)” value was “failed to rescue social behaviors; also recorded: Failed to Reverse Social Deficits”.
